The structures appear in SMILES notation. ≈ marks a conversion by molar mass, not a printed value.

Test in all cases: microbe, parasite or virus in culture
The subject of test [1] is Mycobacterium tuberculosis (replicating TB). Type of test: cell-based.
For test [2], the system named is strains of TB that are resistant to Isoniazid. Type of test: cell-based. Particulars: Mycobacterium tuberculosis.
The subject of test [3] is strains of TB that are resistant to Rifampin. Type of test: cell-based. Particulars: Mycobacterium tuberculosis.
For the next test, the system named is non-replicating TB. Type of test: cell-based, Mycobacterium tuberculosis.
The subject of test [4] is strains of TB that are resistant to Kanamycin. Type of test: cell-based. Particulars: Mycobacterium tuberculosis.

Turning to `O=C1C=Cc2nocc2/C1=C1/Nc2ccccc2C1=O` [Example P1, 4-(3-oxoindolin-2-ylidene)benzo[c]isoxazol-5(4H)-one], in test [1], the “MIC MABA” value came out at 0.15 µg/mL (≈ 0.568 µM). For the same compound, the values for the MIC in test [2], in test [3] and in test [4] were 0.138 µg/mL (≈ 0.522 µM), 0.239 µg/mL (≈ 0.904 µM) and 0.148 µg/mL (≈ 0.56 µM), respectively. Further, the “MIC LORA” value against non-replicating TB was 1.833 µg/mL (≈ 6.94 µM).

These data come from US8975015B2, “Antimicrobial compounds” (priority 2009, dated 2015).
